The data set concerns adult male Wistar rats. The conditions noted are these: rat, in vivo.

Experimental: In vivo cardiac biocompatibility of PGSU-SF films All surgical procedures were approved by the IACUC of the Children's Hospital Boston and performed according to the NIH Guidelines for the Care and Use of Laboratory Animals Briefly, adult male Wistar rats (Charles River Laboratories, Wilmington, Mass.) were anesthetized with an intraperitoneal injection of ketamine (100 mg/kg) and xylazine (10 mg/kg), followed by intratracheal intubation. Rats were ventilated with a small animal respirator (Harvard Apparatus, Holliston, Mass.), and anesthesia was maintained with 0.5 to 1.0% isofluorane and 100% oxygen. The heart was accessed through an anterior right-sided thoracotomy, followed by the removal of the pericardial sac. A 1 mm thick and 7 mm in diameter porous PGSU-SF 1:0.3 patch was sutured on the left ventricle (LV) epicardial surface of the rat heart using three 7-0 polypropylene monofilament stitches. The chest wall was closed in layers, and the thoracic cavity evacuated with a 18-gauge intravenous catheter Animals were sacrificed at 1 and 4 weeks (n=4 per time point) after the surgical procedure with CO2, followed by immediate excision of the heart. Tissue sections transverse to the patch and heart surface were stained with Hematoxylin and Eosin stain (H&E). […]

As to “poly (glycerol sebacate urethane) [PGSU-SF 1:0.3]”, the “cardiac function (echocardiography)” value was “No changes” and the chest adhesions entry is “Moderate”.

The record behind these values is patent publication US11254781B2, “Urethane-crosslinked biodegradable elastomers” (Massachusetts Institute of Technology, priority 2011, dated 2022).
